Consider 7 compounds from patent EP0367040A1, “Compounds for the treatment of urinary incontinence” (Kabi Pharmacia AB, priority 1988, dated 1990).

Assay [1] deals with rabbit urinary bladder. Put plainly: Anticholinergic effect on carbachol-stimulated isolated urinary bladder strips. In kind it is cell-based. The settings on record: Oryctolagus cuniculus, read-out: Carbachol stim.rabbit urinary bladder KD.
Experimental: (§1) Carbachol was used as an agonist and was added to the organ bath cumulatively.
A further assay relates to rabbit papillary muscles. Nature of the assay: Electrically stimulated isolated papillary muscle (heart), contraction amplitude. It is filed as cell-based. The settings on record: Oryctolagus cuniculus, read-out: El.stim. papillary muscle, % inhibition of 1 µM.
Another assay has as its system rabbit portal vein. Put plainly: Electrically induced submaximal contractions of isolated portal vein. It is filed as cell-based. The following applies: Oryctolagus cuniculus, read-out: El.stim. portal vein % inhibition by 1 µM.
For assay [2], the system named is rabbit urinary bladder. Nature of the assay: Inhibition of electrically induced contractions of isolated urinary bladder strips. The following applies: Oryctolagus cuniculus; electrically stimulated isolated rabbit bladder strips; only about half of the contractile response is mediated by cholinergic nerves; read-out: El.stim. rabbit urinary bladder IC50. It is filed as cell-based.
Experimental: as §1

The next assay deals with albino mice. Nature of the assay: Mydriatic effect, pupil diameter in unanaesthetized mice after intravenous dosing. In kind it is in vivo.
A further assay relates to muscarinic receptors. Nature of the assay: Selectivity factor: isolated human urinary bladder versus human salivary gland (QNB radioligand). The following applies: quotient of inhibitory concentration on isolated human urinary bladder and human salivary gland; lower figure = higher selectivity for the bladder. It is filed as binding. The source says: The human salivary glands were obtained from patients undergoing operation for treatment of cancer in these glands. As the radioligand by which the muscarinic receptors were label led, QNB was used. The method is described in detail by S. Batra et al. in Psychopharmacology, 1986, 90, 1-4.

Where [3] appears, read: carbachol as agonist, added cumulatively, isolated rabbit bladder strips.
[4] abbreviates: 1 µM, isolated rabbit papillary muscle, electrically stimulated.
The mark [5] stands for this setting: 1 µM, isolated rabbit portal vein, electrically stimulated.

Where two headings read alike, the source gives them in different places.

Experimental for albino mice: For studying the mydriatic effect of the compounds un­anaesthetized albino mice were used. The substance was given intravenously in different doses and the pupil diame­ter was measured by means of a microscope every tenth minute until the effect disappeared.
Text for rabbit papillary muscles: The effects on heart were investigated by using isolated, rabbit papillary muscles, which were electrically stimulated at a submaximum frequency. The contraction amplitude was re­corded.

As usually defined, the inhibition is the share of the control response that was lost under treatment. For `CN1[C@@H]2CC[C@H]1C[C@@H](OC(=O)C(CO)c1ccccc1)C2` (stereo partly shown) [Atropine, reference compound], the Kb with rabbit urinary bladder [1] was 0.002 µM. For the same compound, the values for the inhibition at 1 µM in the assay with rabbit papillary muscles and in the assay on rabbit portal vein were 5% and 20%, respectively.
In general, IC50 refers to the concentration that inhibits the measured activity by half. `CC(C)N(CCN(C)C(=O)C(c1ccccc1)c1ccccc1)C(C)C.Cl` [Example No 3, N-methyl-N-(2-diisopropylaminoethyl)-2,2-diphenyl-acetamide hydrochloride]: the IC50 with rabbit urinary bladder [2] is 8.5 µM. In the assay on rabbit urinary bladder [1] (setting [3]), the Kb was 0.06 µM. The inhibition at 1 µM with rabbit papillary muscles (setting [4]) was 8%; in the assay on rabbit portal vein (setting [5]), 10%. For the same compound, in the assay with albino mice, the “Mydriatic effect, % dilatation by 1 mg/kg i.v.” value (“Mydriatic effect, % dilatation” below) turned out to be 2%. The “Selectivity factor for human urinary bladder in comparison with human salivary gland” value (shortened to “Selectivity factor”) with muscarinic receptors came to 6.
With `CC(C)N(CCCN(C)C(=O)C(c1ccccc1)c1ccccc1)C(C)C` [Example No 4, N-methyl-N-(3-diisopropylaminopropyl)-2,2 diphenylacetamide], the IC50 in the assay with rabbit urinary bladder [2] is 35.2 µM. Further, the Kb with rabbit urinary bladder [1] (setting [3]) was 0.55 µM. For the same compound, the figures for the inhibition at 1 µM with rabbit papillary muscles (setting [4]) and in the assay on rabbit portal vein (setting [5]) were 9% and 4%, respectively. The “Mydriatic effect, % dilatation” value in the assay on albino mice stood at 0%. Also, in the assay on muscarinic receptors, the “Selectivity factor” value is listed as 5.
On to `CN(CCCN(C)C(C)(C)C)C(=O)C(c1ccccc1)c1ccccc1.Cl` [Example No 7, N-methyl-N-[3-(N-methyl-N-tert-butyl-amino)propyl]-2,2-diphenylacetamide hydrochloride], for which, in the assay on rabbit urinary bladder [2], the IC50 came to 25.7 µM. Moreover, the Kb in the assay on rabbit urinary bladder [1] (setting [3]) was found to be 2.9 µM. The inhibition at 1 µM was 0% with rabbit papillary muscles (setting [4]) and 4% with rabbit portal vein (setting [5]). For the same compound, the “Mydriatic effect, % dilatation” value in the assay with albino mice is reported as 0%. In addition, in the assay on muscarinic receptors, the “Selectivity factor” value worked out at 2.
Consider `CC(C)N(CCNC(=O)C(c1ccccc1)c1ccccc1)C(C)C` [Example No 10, N-(2-diisopropylaminoetyl)-2,2-diphenylacetamide], for which the IC50 with rabbit urinary bladder [2] came out at 5.3 µM. Besides, in the assay with rabbit urinary bladder [1] (setting [3]), the Kb is 0.11 µM. Further, the figures for the inhibition at 1 µM in the assay on rabbit papillary muscles (setting [4]) and with rabbit portal vein (setting [5]) were 0% and 10%, respectively. Further, in the assay with albino mice, the “Mydriatic effect, % dilatation” value stood at 11%. Besides, the “Selectivity factor” value with muscarinic receptors came out at 6.
As for `CCN(CC)CC#CCOC(=O)C(O)(c1ccccc1)C1CCCCC1` (stereo not shown) [Oxybutynin, 2-cyclohexyl-2-hydroxy-2-phenylacetic acid 4-(diethylamino)-2-butynyl ester, reference compound], in the assay on rabbit urinary bladder [1], the Kb is 0.006 µM. Moreover, the values for the inhibition at 1 µM with rabbit papillary muscles and in the assay with rabbit portal vein were 3% and 6%, respectively. Besides, the “Mydriatic effect, % dilatation” value in the assay on albino mice worked out at 95%.
Consider `CC(CC(c1ccccc1)c1ccccc1)NC(C)(C)C` (stereo not shown) [Terodiline, N-t-butyl-3,3-diphenyl-1-methylpropylamine, reference compound], for which the IC50 in the assay with rabbit urinary bladder [2] came to 14.5 µM. For the same compound, the Kb in the assay with rabbit urinary bladder [1] (setting [3]) was 0.22 µM. The inhibition at 1 µM is 14% in the assay on rabbit papillary muscles (setting [4]) and 4% in the assay on rabbit portal vein (setting [5]). The “Mydriatic effect, % dilatation” value in the assay on albino mice stood at 1%. The “Selectivity factor” value in the assay on muscarinic receptors stood at 93.
